The nature of data set [1]: In vitro metabolic stability in liver microsomes, dog. It counts as in vitro ADME. To be noted: for microsomal CLint at 2 µM: dog, microsomes, pH 7.3; for CLint (µL/min/mg protein) dog: dog liver microsomes. A general note: Liver microsomes are a subcellular fraction often used to study metabolism.
Data set [2] can be described thus: In vitro metabolic stability in liver microsomes, mouse. The format is in vitro ADME. Conditions: for microsomal CLint at 2 µM: pH 7.3, read-out: CLint (µL/min/mg protein) mouse.
Data set [3] is described as follows: In vitro metabolic stability in liver microsomes, human. Conditions: for microsomal CLint at 2 µM: pH 7.3, read-out: CLint (µL/min/mg protein) human. It counts as in vitro ADME. The method, then:
(§1) Example D: In Vitro Metabolic Stability of Human and Rat Liver Microsomes Test Buffer Preparation
(§2) Dissolve 1900 mg of MgCl2 in 400 mL of ultrapure water.
(§3) Dissolve 17.42 g K2HPO4 and 13.65 g KH2PO4 into 1000 mL of ultrapure water, respectively. Mix a certain proportion of K2HPO4 and KH2PO4 to adjust the pH to 7.30 ± 0.10.
(§4) Prepare a solution of 10 ng/mL labetalol and 10 ng/mL glyburide in acetonitrile and store at 4° C.
(§5) Prepare 10 mM verapamil (positive control) and test article stock solutions in DMSO. Then, with MeOH/ACN/H2O solution (1:1:2 by volume), diluted to 50 µM and 200 µM working solutions, respectively.
(§6) experiment procedure: • 1) Add 40 µL MgCl2 and 306 µL PBS to 96 wells (set blank control group, positive control group, test compound sample group, and negative control group at the same time) • 2) Add 4 µL of compound working solution to each well (4 µL of PBS buffer for blank group) (Note: the final concentration of DMSO volume in the system is ≤ 0.5%) • 3) Add 10 µL of liver microsomes (concentration: 20 mg/mL) to each well, mix well, and pre-incubate at 37° C. for 10 minutes. • 4) Add 40 µL of 10 mM NADPH working solution to each well to start the reaction (add equal volume of PBS buffer for blank control group and negative control group respectively), the total reaction volume is 400 µL. • 5) Take out 50 µL samples from the above reaction solution at 0, 5, 15, and 45 minutes, and add 400 µL of reaction stop solution to stop the reaction • 6) Shake the sample after the termination of the reaction on a shaker for 5 minutes. • 7) Centrifuge the sample at 3200 rcf for 10 minutes. After the centrifugation is complete, transfer 50 µL of the supernatant to 200 µL of H2O for dilution for LC-MS/MS analysis.
(§7) Calculations of t½ and CLint are performed using the first-order kinetic equations: […]
(§8) where k represents the elimination constant, calculated from a log-linear plot of percentage remaining versus time. t½ represents half-life. Cprotein is the concentration of liver microsomes.

Data set [4] has as its system leukemia cells MV-4-11. The data set can be described thus: Cell proliferation assay, CELL TITER-GLO (CTG) luminescence, MV-4-11. It counts as cell-based. Put shortly: (§9)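 NCI-H358 (2000 cells/well, ultra-low-attachment plates) and MV-4-11 cells were dosed 24 h after seeding at 1000 nM down to 0.1524 nM (3-fold steps). Viable-cell ATP was read by CellTiter-Glo luminescence after 96 h for NCI-H358 and 120 h for MV-4-11. IC50 came from a variable-slope fit of inhibition versus the 0 nM control.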

Data set [5] is described as follows: In vitro metabolic stability in liver microsomes, rat. The format is in vitro ADME. Conditions: for microsomal CLint at 2 µM: pH 7.3, read-out: CLint (µL/min/mg protein) rat. The method, then: as §1, §2, §3, §4, §5, §6, §7, §8
Data set [6] in a line: In vitro metabolic stability in liver microsomes, monkey. The format is in vitro ADME. Conditions: for microsomal CLint at 2 µM: pH 7.3, read-out: CLint (µL/min/mg protein) monkey.
Data set [7] concerns lung cancer cells NCI-H358. The experiment in a line: Cell proliferation assay, CELL TITER-GLO (CTG) luminescence, NCI-H358. The format is cell-based. Conditions: cultured for 96 hrs. In short, it runs like this:
as §9
A general note: Cellular ATP, detected with luciferase, serves as a proxy for viable cell number.

Data set [8] deals with SHP2 (Homo sapiens (Human), UniProt Q06124). The experiment in a line: SHP2 allosteric inhibitory enzyme activity assay (DiFMUP fluorescence). It counts as biochemical. Conditions: read-out: SHP2 enzymatic activity IC50. Put shortly: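 Human SHP2 (0.2 ng) preincubated 1 h at room temperature with 25 µM activating peptide IRS1_pY1172(dPEG8)pY1222 and compound (10-point series from 10 µM) in HEPES/NaCl/KCl/BRIJ-35/EDTA/DTT buffer. DiFMUP then added for 1 h; fluorescence at ex 340/em 450 nm, normalized to no-enzyme and no-inhibitor controls, IC50 from variable-slope fit.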
SHP2, sequence (Q06124 whole entry): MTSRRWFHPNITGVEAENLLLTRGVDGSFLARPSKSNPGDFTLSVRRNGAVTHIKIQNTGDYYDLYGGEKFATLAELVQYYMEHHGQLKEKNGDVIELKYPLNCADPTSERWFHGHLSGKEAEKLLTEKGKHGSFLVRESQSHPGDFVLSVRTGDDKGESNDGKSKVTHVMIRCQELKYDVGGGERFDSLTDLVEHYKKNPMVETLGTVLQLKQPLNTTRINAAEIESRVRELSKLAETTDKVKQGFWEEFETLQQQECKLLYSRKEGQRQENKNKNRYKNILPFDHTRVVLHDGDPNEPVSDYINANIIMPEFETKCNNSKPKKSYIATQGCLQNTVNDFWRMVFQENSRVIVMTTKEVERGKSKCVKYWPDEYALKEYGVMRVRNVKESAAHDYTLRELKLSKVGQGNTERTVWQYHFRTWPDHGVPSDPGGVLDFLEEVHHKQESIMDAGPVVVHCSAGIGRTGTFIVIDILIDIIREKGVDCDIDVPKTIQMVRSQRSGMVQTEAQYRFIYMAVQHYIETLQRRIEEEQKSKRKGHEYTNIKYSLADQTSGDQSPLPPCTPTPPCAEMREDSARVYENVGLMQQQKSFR

Setting [9] is: Homo sapiens, MV4-11, cultured for 120 hrs.
The mark [10] stands for this setting: Homo sapiens, NCI-H358, ultra-low adsorption plate.

We go through eleven compounds from patent publication US20230339882A1, “SHP2 INHIBITOR AND COMPOSITION AND APPLICATION THEREOF” (Betta Pharmaceuticals Co., Ltd., priority 2020, published 2023).

Molecules are shown by their SMILES.

For the compound `N#Cc1ccc(OCC#Cc2cnc(N3CCC4(CC3)Cc3ccccc3[C@H]4N)c(CO)n2)cc1` [Compound A12, (S)-4-((3-(5-(1-amino-1,3-dihydrospiro[indene-2,4′-piperidin]-1′-yl)-6-(hydroxymethyl)pyrazin-2-yl)prop-2-yn-1-yl)oxy)benzonitrile], the microsomal CLint at 2 µM in data set [1] was 6.2 µL/min/mg; in data set [2], 8.3 µL/min/mg; in data set [3], 0.2 µL/min/mg; in data set [5], 5.5 µL/min/mg; in data set [6], 7.3 µL/min/mg. Besides, the IC50 (commonly the point on the concentration scale where inhibition reaches its midpoint) in data set [4] (setting [9]) is 3.8 nM; in data set [7] (setting [10]), 7.4 nM.

In the case of `N[C@@H]1c2ccccc2CC12CCN(c1ncc(C#CCOc3cccc(C(F)(F)F)c3)nc1CO)CC2` [Compound A13], the “CLint (µL/min/mg protein) dog” value in data set [1] is 0.9 µL/min/mg protein. Also, in data set [2], the “CLint (µL/min/mg protein) mouse” value is 6.6 µL/min/mg protein. Further, the “CLint (µL/min/mg protein) human” value in data set [3] was 6.3 µL/min/mg protein. The IC50 in data set [4] (cultured for 120 hrs) was 18 nM; in data set [8], 5.8 nM; in data set [7] (ultra-low adsorption plate), 28 nM. Also, the “CLint (µL/min/mg protein) rat” value in data set [5] stood at 2.4 µL/min/mg protein. Besides, the “CLint (µL/min/mg protein) monkey” value in data set [6] is given as 2.6 µL/min/mg protein.

With `NC(=O)c1ccc(OCC#Cc2cnc(N3CCC4(CC3)Cc3ccccc3[C@H]4N)c(CO)n2)cc1` [Compound A17, (S)-4-((3-(5-(1-amino-1,3-dihydrospiro[indene-2,4′-piperidine]-1′-yl)-6-(hydroxymethyl)pyrazin-2-yl)prop-2-yn-1-yl)oxy) benzamide], the “CLint (µL/min/mg protein) dog” value in data set [1] was determined as 10.6 µL/min/mg protein. Also, in data set [2], the “CLint (µL/min/mg protein) mouse” value turned out to be 12.0 µL/min/mg protein. The “CLint (µL/min/mg protein) human” value in data set [3] is given as 0.4 µL/min/mg protein. Moreover, the IC50 in data set [4] (cultured for 120 hrs) stood at 1 nM; in data set [8], 2.4 nM; in data set [7] (ultra-low adsorption plate), 1.5 nM. Moreover, in data set [5], the “CLint (µL/min/mg protein) rat” value is on record as 15.9 µL/min/mg protein. The “CLint (µL/min/mg protein) monkey” value in data set [6] came out at 5.0 µL/min/mg protein.

`N[C@@H]1c2ccccc2CC12CCN(c1ncc(C#CCOc3ccc4c(c3)NC(=O)CC4)nc1CO)CC2` [Compound A22]: the “CLint (µL/min/mg protein) dog” value in data set [1] came to 13.6 µL/min/mg protein. In addition, the “CLint (µL/min/mg protein) mouse” value in data set [2] turned out to be 13.2 µL/min/mg protein. For the same compound, the “CLint (µL/min/mg protein) human” value in data set [3] worked out at 1.6 µL/min/mg protein. The IC50 in data set [4] (cultured for 120 hrs) came out at 2.9 nM; in data set [8], 4.6 nM; in data set [7] (ultra-low adsorption plate), 2.3 nM. Also, in data set [5], the “CLint (µL/min/mg protein) rat” value amounted to 20.7 µL/min/mg protein. In data set [6], the “CLint (µL/min/mg protein) monkey” value came to 21.0 µL/min/mg protein.

As for `N[C@@H]1c2ccccc2CC12CCN(c1ncc(C#CCOc3ccc4ccc(=O)[nH]c4c3)nc1CO)CC2` [Compound A24, (S)-7-((3-(5-(1-amino-1,3-dihydrospiro[indene-2,4′-piperidin]-1′-yl)-6-(hydroxymethyl)pyrazin-2-yl)prop-2-yn-1-yl)oxy)quinolin-2(1H)-one], the microsomal CLint at 2 µM in data set [1] came to 8.8 µL/min/mg; in data set [2] it was 8.3 µL/min/mg; in data set [3], 1.6 µL/min/mg; in data set [5] it was 11 µL/min/mg; in data set [6], 9.9 µL/min/mg. Also, the IC50 in data set [4] (setting [9]) was determined as 1.3 nM; in data set [7] (setting [10]) it was 1.5 nM.

Take `Nc1cc(OCC#Cc2cnc(N3CCC4(CC3)Cc3ccccc3[C@H]4N)c(CO)n2)ccn1` [Compound A26, (S)-(3-(1-amino-1,3-dihydrospiro [indene-2,4′-piperidine]-1′-yl)-6-(3-((2-Aminopyridin-4-yl)oxy)prop-1-yn-1-yl)pyrazin-2-yl) methanol]: the microsomal CLint at 2 µM in data set [1] was 1.2 µL/min/mg; in data set [2] it was 9.8 µL/min/mg; in data set [3], 2.2 µL/min/mg; in data set [5], 9 µL/min/mg; in data set [6], 6.3 µL/min/mg. In addition, the IC50 in data set [4] (setting [9]) was 1.8 nM; in data set [8] it was 1.6 nM; in data set [7] (setting [10]), 5.2 nM.

`NC(=O)c1cccc(OCC#Cc2cnc(N3CCC4(CC3)Cc3ccccc3[C@H]4N)c(CO)n2)c1` [Compound A27, (S)-3-((3-(5-(1-amino-1,3-dihydrospiro[indene-2,4′-piperidine]-1′-yl)-6-(hydroxymethyl)pyrazin-2-yl)prop-2-yn-1-yl)oxy)benzamide]: the microsomal CLint at 2 µM in data set [1] turned out to be 4.8 µL/min/mg; in data set [2], 17.7 µL/min/mg; in data set [3], 4 µL/min/mg; in data set [5], 7.5 µL/min/mg; in data set [6], 15.9 µL/min/mg. Further, the IC50 in data set [4] (setting [9]) was determined as 1.4 nM; in data set [8] it was 1.9 nM; in data set [7] (setting [10]), 1.5 nM.

Turning to `N[C@@H]1c2ccccc2CC12CCN(c1ncc(C#CCNC(=O)c3ccccc3)nc1CO)CC2` [Compound A45], the “CLint (µL/min/mg protein) dog” value in data set [1] turned out to be 9.6 µL/min/mg protein. Further, the “CLint (µL/min/mg protein) mouse” value in data set [2] was 6.3 µL/min/mg protein. The “CLint (µL/min/mg protein) human” value in data set [3] was found to be 5.2 µL/min/mg protein. Besides, the IC50 in data set [4] (cultured for 120 hrs) was determined as 20 nM; in data set [8], 4.7 nM; in data set [7] (ultra-low adsorption plate), 40 nM. In addition, the “CLint (µL/min/mg protein) rat” value in data set [5] was 7.9 µL/min/mg protein. The “CLint (µL/min/mg protein) monkey” value in data set [6] is 3.2 µL/min/mg protein.

In the case of `N[C@@H]1c2ccccc2CC12CCN(c1ncc(C#CCOc3ccc(C(O)C(F)(F)F)cc3)nc1CO)CC2` (stereo partly drawn) [Compound A80, 1-(4-((3-(5-((S)-1-amino-1,3-dihydrospiro[indene-2,4′-piperidin]-1′-yl)-6-(hydroxymethyl)pyrazin-2-yl)prop-2-yn-1-yl)oxy)phenyl)-2,2,2-trifluoroethane-1-ol], the microsomal CLint at 2 µM is 3.1 µL/min/mg in data set [1]; 9 µL/min/mg in data set [2]; 2.7 µL/min/mg in data set [3]; 14 µL/min/mg in data set [5]; 1 µL/min/mg in data set [6]. For the same compound, the IC50 in data set [4] (setting [9]) was found to be 10.4 nM; in data set [8] it was 2.8 nM.

With `NC(=O)c1cccc(NCC#Cc2cnc(N3CCC4(CC3)Cc3ccccc3[C@H]4N)c(CO)n2)c1` [Compound A81, (S)-3-((3-(5-(1-amino-1,3-dihydrospiro[indene-2,4′-piperidin]-1′-yl)-6-(hydroxymethyl)pyrazin-2-yl)prop-2-yn-1-yl)amino)benzamide], the microsomal CLint at 2 µM in data set [1] came out at 13.5 µL/min/mg; in data set [2], 11.5 µL/min/mg; in data set [3] it was 14.2 µL/min/mg; in data set [5] it was 18.4 µL/min/mg; in data set [6], 4 µL/min/mg. Further, the IC50 in data set [4] (setting [9]) amounted to 1.8 nM; in data set [7] (setting [10]), 6.3 nM.

Take `NC(=O)Cn1cc(OCC#Cc2cnc(N3CCC4(CC3)Cc3ccccc3[C@H]4N)c(CO)n2)cn1` [Compound A82, (S)-2-(4-((3-(5-(1-amino-1,3-dihydrospiro[indene-2,4′-piperidin]-1′-yl)-6-(hydroxymethyl)pyrazin-2-yl)prop-2-yn-1-yl)oxy)-1H-pyrazol-1-yl)acetamide]: the microsomal CLint at 2 µM amounted to 3.9 µL/min/mg in data set [1]; 10.5 µL/min/mg in data set [2]; 8.6 µL/min/mg in data set [3]; 5.3 µL/min/mg in data set [5]; 4.5 µL/min/mg in data set [6]. Also, the IC50 in data set [4] (setting [9]) was 9 nM; in data set [7] (setting [10]), 40 nM.
